In patent publication US20040156869A1, “2-substituted quinazolin-4-ylamine analogues” (Neurogen Corporation, priority 2002, published 2004):
pKi: −log10 of the molar value.

Molecular target: human capsaicin receptor (VR1) (Homo sapiens, UniProt Q8NER1)
Test: Capsaicin receptor binding assay ([3H]RTX competition, VR1-transfected HEK293 membranes)

Chain of human capsaicin receptor (VR1) (Q8NER1 whole entry): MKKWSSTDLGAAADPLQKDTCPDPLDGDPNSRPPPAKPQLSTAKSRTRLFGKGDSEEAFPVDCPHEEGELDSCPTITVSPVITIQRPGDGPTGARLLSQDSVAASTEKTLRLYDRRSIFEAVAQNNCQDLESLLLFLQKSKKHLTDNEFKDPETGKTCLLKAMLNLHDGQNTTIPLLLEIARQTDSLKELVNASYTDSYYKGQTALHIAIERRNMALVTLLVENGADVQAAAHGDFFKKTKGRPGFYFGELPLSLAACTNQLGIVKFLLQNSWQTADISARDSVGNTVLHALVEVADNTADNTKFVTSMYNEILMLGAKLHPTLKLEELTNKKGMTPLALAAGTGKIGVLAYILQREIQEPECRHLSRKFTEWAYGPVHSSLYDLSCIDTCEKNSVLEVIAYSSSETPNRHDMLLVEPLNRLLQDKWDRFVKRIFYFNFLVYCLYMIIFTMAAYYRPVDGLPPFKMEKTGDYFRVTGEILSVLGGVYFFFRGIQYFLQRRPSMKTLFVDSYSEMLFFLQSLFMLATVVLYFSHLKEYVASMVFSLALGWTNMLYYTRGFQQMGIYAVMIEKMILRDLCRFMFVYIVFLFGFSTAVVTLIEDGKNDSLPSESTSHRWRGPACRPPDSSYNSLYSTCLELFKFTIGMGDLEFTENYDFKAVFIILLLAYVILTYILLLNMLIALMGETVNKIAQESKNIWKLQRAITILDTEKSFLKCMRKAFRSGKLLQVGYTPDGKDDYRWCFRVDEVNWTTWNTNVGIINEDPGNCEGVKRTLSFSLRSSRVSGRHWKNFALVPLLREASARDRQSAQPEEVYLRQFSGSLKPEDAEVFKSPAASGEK

pKi, > 6.00:
CCc1ccc(Nc2nc(CN3CC(C)O[C@H](C)C3)nc3cc(-c4ncccc4C(F)(F)F)ccc23)cc1 (stereo in doubt) [Compound 653, (R,R)-[2-(2,6-Dimethyl-morpholin-4-ylmethyl)-7-(3-trifluoromethyl-pyridin-2-yl)-quinazolin-4-yl]-(4-ethyl-phenyl)-amine]
CC(C)(C)c1ccc(Nc2nc(CN3C[C@@H](O)C[C@@H]3C(=O)O)nc3cc(-c4ncccc4C(F)(F)F)ccc23)cc1 (stereo in doubt) [Compound 753, (R,S)-1-[4-(4-tert-Butyl-phenylamino)-7-(3-trifluoromethyl-pyridin-2-yl)-quinazolin-2-ylmethyl]-4-hydroxy-pyrrolidine-2-carboxylic acid]
CC(=O)OCc1nc(Nc2ccc(C(F)(F)F)cc2)c2ccc(-c3ncccc3C(F)(F)F)cc2n1 [Compound 9, Acetic acid 4-(4-trifluoromethyl-phenylamino)-7-(3-trifluoromethyl-pyridin-2-yl)-quinazolin-2-ylmethyl ester]
FC(F)(F)c1ccc(Nc2nc(CCCOCc3ccccc3)nc3cc(-c4ncccc4C(F)(F)F)ccc23)cc1 [Compound 12, [2-(3-Benzyloxy-propyl)-7-(3-trifluoromethyl-pyridin-2-yl)-quinazolin-4-yl]-(4-trifluoromethyl-phenyl)-amine]
FC(F)(F)c1ccc(Nc2nc(CCCOCc3ccccc3)nc3cc(-c4ncccc4C(F)(F)F)ccc23)cn1 [Compound 13, [2-(3-Benzyloxy-propyl)-7-(3-trifluoromethyl-pyridin-2-yl)-quinazolin-4-yl]-(6-trifluoromethyl-pyridin-3-yl)-amine]
CC(C)(C)c1ccc(Nc2nc(CCCOCc3ccccc3)nc3cc(-c4ncccc4C(F)(F)F)ccc23)cn1 [Compound 15, [2-(3-Benzyloxy-propyl)-7-(3-trifluoromethyl-pyridin-2-yl)-quinazolin-4-yl]-(6-tert-butyl-pyridin-3-yl)-amine]
CC(C)(C)c1ccc(Nc2nc(CCCO)nc3cc(-c4ncccc4C(F)(F)F)ccc23)cn1 [Compound 16, 3-[4-(6-tert-Butyl-pyridin-3-ylamino)-7-(3-trifluoromethyl-pyridin-2-yl)-quinazolin-2-yl]-propan-1-ol]
COC(=O)CCc1nc(Nc2ccc(C(F)(F)F)cc2)c2ccc(-c3ncccc3C(F)(F)F)cc2n1 [Compound 17, 3-[4-(4-Trifluoromethyl-phenylamino)-7-(3-trifluoromethyl-pyridin-2-yl)-quinazolin-2-yl]-propionic acid methyl ester]
COC(=O)CCc1nc(Nc2ccc(C(F)(F)F)nc2)c2ccc(-c3ncccc3C(F)(F)F)cc2n1 [Compound 18, 3-[7-(3-Trifluoromethyl-pyridin-2-yl)-4-(6-trifluoromethyl-pyridin-3-ylamino)-quinazolin-2-yl]-propionic acid methyl ester]
CCOC(=O)Cc1nc(Nc2ccc(C(F)(F)F)cc2)c2ccc(-c3ncccc3C(F)(F)F)cc2n1 [Compound 20, [4-(4-Trifluoromethyl-phenylamino)-7-(3-trifluoromethyl-pyridin-2-yl)-quinazolin-2-yl]-acetic acid ethyl ester]
CC(=O)OCc1nc(Nc2ccc(C(F)(F)F)nc2)c2ccc(-c3ncccc3C(F)(F)F)cc2n1 [Compound 21, Acetic acid 7-(3-trifluoromethyl-pyridin-2-yl)-4-(6-trifluoromethyl-pyridin-3-ylamino)-quinazolin-2-ylmethyl ester]
OCc1nc(Nc2ccc(C(F)(F)F)nc2)c2ccc(-c3ncccc3C(F)(F)F)cc2n1 [Compound 22, [7-(3-Trifluoromethyl-pyridin-2-yl)-4-(6-trifluoromethyl-pyridin-3-ylamino)-quinazolin-2-yl]-methanol]
CC(c1ccc(Nc2nc(COCc3ccccc3)nc3cc(-c4ncccc4C(F)(F)F)ccc23)cc1)C(F)(F)F (centres unmarked) [Compound 23, [2-Benzyloxymethyl-7-(3-trifluoromethyl-pyridin-2-yl)-quinazolin-4-yl]-[4-(2,2,2-trifluoro-1-methyl-ethyl)-phenyl]-amine]
FC(F)(F)c1ccc(Nc2nc(COCc3ccccc3)nc3cc(-c4ncccc4C(F)(F)F)ccc23)cn1 [Compound 25, [2-Benzyloxymethyl-7-(3-trifluoromethyl-pyridin-2-yl)-quinazolin-4-yl]-(6-trifluoromethyl-pyridin-3-yl)-amine]
FC(F)(F)c1ccc(Nc2nc(COCc3ccccc3)nc3cc(-c4ncccc4C(F)(F)F)ccc23)nc1 [Compound 26, [2-Benzyloxymethyl-7-(3-trifluoromethyl-pyridin-2-yl)-quinazolin-4-yl]-(5-trifluoromethyl-pyridin-2-yl)-amine]
FC(F)(F)Oc1ccc(Nc2nc(COCc3ccccc3)nc3cc(-c4ncccc4C(F)(F)F)ccc23)cc1 [Compound 27, [2-Benzyloxymethyl-7-(3-trifluoromethyl-pyridin-2-yl)-quinazolin-4-yl]-(4-trifluoromethoxy-phenyl)-amine]
O=S(=O)(c1ccc(Nc2nc(COCc3ccccc3)nc3cc(-c4ncccc4C(F)(F)F)ccc23)cc1)C(F)(F)F [Compound 28, [2-Benzyloxymethyl-7-(3-trifluoromethyl-pyridin-2-yl)-quinazolin-4-yl]-(4-trifluoromethanesulfonyl-phenyl)-amine]
CCN(CC)CCOCc1nc(Nc2ccc(C(F)(F)F)nc2)c2ccc(-c3ncccc3C(F)(F)F)cc2n1 [Compound 29, [2-(2-Diethylamino-ethoxymethyl)-7-(3-trifluoromethyl-pyridin-2-yl)-quinazolin-4-yl]-(6-trifluoromethyl-pyridin-3-yl)-amine]
FC(F)(F)c1ccc(Nc2nc(COCCN3CCCCC3)nc3cc(-c4ncccc4C(F)(F)F)ccc23)cn1 [Compound 30, [2-(2-Piperidin-1-yl-ethoxymethyl)-7-(3-trifluoromethyl-pyridin-2-yl)-quinazolin-4-yl]-(6-trifluoromethyl-pyridin-3-yl)-amine]
CN1CCC(OCc2nc(Nc3ccc(C(F)(F)F)nc3)c3ccc(-c4ncccc4C(F)(F)F)cc3n2)CC1 [Compound 31, [2-(1-Methyl-piperidin-4-yloxymethyl)-7-(3-trifluoromethyl-pyridin-2-yl)-quinazolin-4-yl]-(6-trifluoromethyl-pyridin-3-yl)-amine]
COCc1nc(Nc2ccc(S(C)(=O)=O)cc2)c2ccc(-c3ncccc3C(F)(F)F)cc2n1 [Compound 32, (4-Methanesulfonyl-phenyl)-[2-methoxymethyl-7-(3-trifluoromethyl-pyridin-2-yl)-quinazolin-4-yl]-amine]
COCc1nc(Nc2ccc(S(=O)(=O)C(F)(F)F)cc2)c2ccc(-c3ncccc3C(F)(F)F)cc2n1 [Compound 35, [2-Methoxymethyl-7-(3-trifluoromethyl-pyridin-2-yl)-quinazolin-4-yl]-(4-trifluoromethanesulfonyl-phenyl)-amine]
COCc1nc(Nc2ccc(C(C)(C)COC)cc2)c2ccc(-c3ncccc3C(F)(F)F)cc2n1 [Compound 36, [4-(2-Methoxy-1,1-dimethyl-ethyl)-phenyl]-[2-methoxymethyl-7-(3-trifluoromethyl-pyridin-2-yl)-quinazolin-4-yl]-amine]
COCc1nc(Nc2ccc(S(=O)(=O)NC(C)(C)C)cc2)c2ccc(-c3ncccc3C(F)(F)F)cc2n1 [Compound 37, N-tert-Butyl-4-[2-methoxymethyl-7-(3-trifluoromethyl-pyridin-2-yl)-quinazolin-4-ylamino]-benzenesulfonamide]
CC(C)(C)NS(=O)(=O)c1ccc(Nc2nc(COCc3ccccc3)nc3cc(-c4ncccc4C(F)(F)F)ccc23)cc1 [Compound 38, 4-[2-Benzyloxymethyl-7-(3-trifluoromethyl-pyridin-2-yl)-quinazolin-4-ylamino]-N-tert-butyl-benzenesulfonamide]
CS(=O)(=O)c1ccc(Nc2nc(COCc3ccccc3)nc3cc(-c4ncccc4C(F)(F)F)ccc23)cc1 [Compound 40, [2-Benzyloxymethyl-7-(3-trifluoromethyl-pyridin-2-yl)-quinazolin-4-yl]-(4-methanesulfonyl-phenyl)-amine]
CC(C)(C#N)c1ccc(Nc2nc(COCc3ccccc3)nc3cc(-c4ncccc4C(F)(F)F)ccc23)cc1 [Compound 41, 2-{4-[2-Benzyloxymethyl-7-(3-trifluoromethyl-pyridin-2-yl)-quinazolin-4-ylamino]-phenyl}-2-methyl-propionitrile]
COCC(C)(C)c1ccc(Nc2nc(COCc3ccccc3)nc3cc(-c4ncccc4C(F)(F)F)ccc23)cc1 [Compound 42, [2-Benzyloxymethyl-7-(3-trifluoromethyl-pyridin-2-yl)-quinazolin-4-yl]-[4-(2-methoxy-1,1-dimethyl-ethyl)-phenyl]-amine]
CC(C)(C)c1ccc(Nc2nc(COCc3ccccc3)nc3cc(-c4ncccc4C(F)(F)F)ccc23)cc1 [Compound 43, [2-Benzyloxymethyl-7-(3-trifluoromethyl-pyridin-2-yl)-quinazolin-4-yl]-(4-tert-butyl-phenyl)-amine]
CS(=O)(=O)N1CCc2cc(Nc3nc(COCc4ccccc4)nc4cc(-c5ncccc5C(F)(F)F)ccc34)ccc21 [Compound 44, [2-Benzyloxymethyl-7-(3-trifluoromethyl-pyridin-2-yl)-quinazolin-4-yl]-(1-methanesulfonyl-2,3-dihydro-1H-indol-5-yl)-amine]
FC(F)(F)c1ccc(Nc2nc(COCc3cccnc3)nc3cc(-c4ncccc4C(F)(F)F)ccc23)cn1 [Compound 45, [2-(Pyridin-3-ylmethoxymethyl)-7-(3-trifluoromethyl-pyridin-2-yl)-quinazolin-4-yl]-(6-trifluoromethyl-pyridin-3-yl)-amine]
FC(F)(F)c1ccc(Nc2nc(COCc3ccncc3)nc3cc(-c4ncccc4C(F)(F)F)ccc23)cn1 [Compound 46, [2-(Pyridin-4-ylmethoxymethyl)-7-(3-trifluoromethyl-pyridin-2-yl)-quinazolin-4-yl]-(6-trifluoromethyl-pyridin-3-yl)-amine]
